# Where two headings read alike, the source gives them in different places.
# Assays:
# CYP2A6 = molecular target: T1, CYP2A6 (Homo sapiens, UniProt P11509); test: CYP2A6 inhibition assay (substrate coumarin); conditions: 0.0169 to […] tested, na = concentration-dependent inhibition not observed
# T1 sequence (P11509 1-494): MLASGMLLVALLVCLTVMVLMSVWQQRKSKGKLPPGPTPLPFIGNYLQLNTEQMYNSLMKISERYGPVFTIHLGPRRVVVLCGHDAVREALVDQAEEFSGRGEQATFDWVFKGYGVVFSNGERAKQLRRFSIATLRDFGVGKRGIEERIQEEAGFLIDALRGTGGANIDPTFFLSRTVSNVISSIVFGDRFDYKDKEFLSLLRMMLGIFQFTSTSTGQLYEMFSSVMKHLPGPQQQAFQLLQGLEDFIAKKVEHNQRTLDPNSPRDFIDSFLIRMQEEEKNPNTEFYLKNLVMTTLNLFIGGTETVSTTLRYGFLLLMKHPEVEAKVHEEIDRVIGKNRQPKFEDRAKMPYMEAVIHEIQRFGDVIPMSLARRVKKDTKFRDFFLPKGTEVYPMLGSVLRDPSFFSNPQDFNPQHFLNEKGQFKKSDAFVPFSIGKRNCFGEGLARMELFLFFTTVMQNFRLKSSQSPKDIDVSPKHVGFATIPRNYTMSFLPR
# Source text: (§1) The CYP inhibition assays used microsomes (Supersomes®, Gentest Corp., Woburn, Mass.) prepared from insect cells, each expressing an individual CYP subtype (CYP1A2, CYP2A6, CYP2B6, CYP2C8, CYP2C9, CYP2C19, CYP2D6, CYP2E1 or CYP3A4) expressed from the corresponding human CYP cDNA using a baculovirus expression vector. The microsomes also incorporated supplemental cDNA-expressed human reductase and/or cytochrome b5, as these enzymes stimulate the activity of the CYPs, allowing for a reduction in the amount of enzyme required per reaction (Gentest Corp.). The assays monitored, via fluorescence detection, the formation of a fluorescent metabolite following incubation of the microsomes with a specific CYP substrate. […] Reactions (0.2 mL) were performed in 96-well microtitre plates at 37° C. in the presence of an NADPH regenerating system [NADP+, glucose-6-phosphate (G6P), glucose-6-phosphate dehydrogenase (G6PDH)] and MgCl2. […] All determinations were performed in duplicate. The reagent solutions used for all of the CYP subtype assays, except CYP2C19 and CYP3A4, were prepared by MBDI. For CYP2C19 and CYP3A4, complete reagent kits purchased from Gentest Corp. (CYP2C19/CEC: Cat. No. HTS-4000, Lot No. 1; CYP3A4/BFC: Cat. No. HTS-1000, Lot No. 1) were used to perform the assays.
# (§2) Eight inhibitor and test compound concentrations were tested using 3-fold serial dilutions. The microtitre plates containing 0.1 mL/well of the latter mixture were pre-warmed to 37° C. in an incubator. […] The amount of metabolic product formed was quantified by fluorescence detection in a fluorescence plate reader utilizing excitation and emission filters that had been optimized for the detection of each metabolite.
# (§3) Data Analysis—The mean of the duplicate fluorescent signals in the presence and absence (vehicle control) of each compound was calculated and corrected for the background noise. Percent inhibition was calculated as the difference in the corrected fluorescent signals in the absence and presence of the compound, divided by the corrected fluorescent signal in the absence of compound, multiplied by 100%.
# CYP2B6 = molecular target: T2, CYP2B6 (Homo sapiens, UniProt P20813); test: CYP2B6 inhibition assay (substrate EFC); conditions: 0.0169 to […] tested, na = concentration-dependent inhibition not observed
# T2 sequence (P20813 1-491): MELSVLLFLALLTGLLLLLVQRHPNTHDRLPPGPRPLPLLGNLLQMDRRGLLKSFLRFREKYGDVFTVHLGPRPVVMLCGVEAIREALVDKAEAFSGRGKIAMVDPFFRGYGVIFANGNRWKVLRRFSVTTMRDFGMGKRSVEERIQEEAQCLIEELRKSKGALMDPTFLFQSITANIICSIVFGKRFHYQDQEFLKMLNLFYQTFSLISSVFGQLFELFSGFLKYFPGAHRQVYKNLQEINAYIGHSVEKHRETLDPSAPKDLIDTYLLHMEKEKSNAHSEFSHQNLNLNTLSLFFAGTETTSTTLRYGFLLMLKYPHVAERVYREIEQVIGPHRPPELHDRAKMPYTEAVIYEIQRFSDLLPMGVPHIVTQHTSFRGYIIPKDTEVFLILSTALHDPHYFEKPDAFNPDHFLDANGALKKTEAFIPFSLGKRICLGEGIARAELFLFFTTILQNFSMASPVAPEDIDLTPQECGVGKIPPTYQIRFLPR
# Source text: as §1, §2, §3
# CYP2C8 = molecular target: T3, CYP2C8 (Homo sapiens, UniProt P10632); test: CYP2C8 inhibition assay (substrate DBF); conditions: 0.0169 to […] tested, na = concentration-dependent inhibition not observed
# T3 sequence (P10632 1-490): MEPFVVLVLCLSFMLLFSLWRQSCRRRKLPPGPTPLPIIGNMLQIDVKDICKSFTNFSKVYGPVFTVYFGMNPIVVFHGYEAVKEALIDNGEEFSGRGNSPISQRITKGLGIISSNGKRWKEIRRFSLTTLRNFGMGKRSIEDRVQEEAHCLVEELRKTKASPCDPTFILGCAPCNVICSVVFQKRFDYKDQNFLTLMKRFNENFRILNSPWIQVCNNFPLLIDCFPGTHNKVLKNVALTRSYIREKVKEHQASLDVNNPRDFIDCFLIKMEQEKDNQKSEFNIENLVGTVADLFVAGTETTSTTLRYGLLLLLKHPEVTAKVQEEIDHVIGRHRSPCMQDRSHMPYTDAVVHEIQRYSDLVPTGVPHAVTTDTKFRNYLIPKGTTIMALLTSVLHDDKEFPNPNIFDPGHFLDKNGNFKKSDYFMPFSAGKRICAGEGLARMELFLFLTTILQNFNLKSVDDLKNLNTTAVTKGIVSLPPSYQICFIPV
# Source text: (§4) The CYP inhibition assays used microsomes (Supersomes®, Gentest Corp., Woburn, Mass.) prepared from insect cells, each expressing an individual CYP subtype (CYP1A2, CYP2A6, CYP2B6, CYP2C8, CYP2C9, CYP2C19, CYP2D6, CYP2E1 or CYP3A4) expressed from the corresponding human CYP cDNA using a baculovirus expression vector. The microsomes also incorporated supplemental cDNA-expressed human reductase and/or cytochrome b5, as these enzymes stimulate the activity of the CYPs, allowing for a reduction in the amount of enzyme required per reaction (Gentest Corp.). The assays monitored, via fluorescence detection, the formation of a fluorescent metabolite following incubation of the microsomes with a specific CYP substrate. […]
# as §2, with “dilutions.” for “dilutions. The microtitre plates containing 0.1 mL/well of the latter mixture were pre-warmed to 37° C. in an incubator.”
# (§5) Data Analysis—The mean of the duplicate fluorescent signals in the presence and absence (vehicle control) of each compound was calculated and corrected for the background noise. […]
# CYP2D6 = CYP2D6 (Homo sapiens, UniProt P10635); test: CYP2D6 inhibition assay (substrate AMMC); conditions: 0.0169 to […] tested, na = concentration-dependent inhibition not observed
# Source text: as §4
# as §2, with “dilutions.” for “dilutions. The microtitre plates containing 0.1 mL/well of the latter mixture were pre-warmed to 37° C. in an incubator.”
# as §5
# CYP2E1 = molecular target: T4, CYP2E1 (Homo sapiens, UniProt P05181); test: CYP2E1 inhibition assay (substrate MFC); assay type: in vitro ADME; conditions: 0.0169 to […] tested, na = concentration-dependent inhibition not observed
# T4 construct: purchased Gentest Corp; host or cells: insect cells (baculovirus)
# Description: All determinations were performed in duplicate.
# CYP3A4 = CYP3A4 (Homo sapiens, UniProt P08684); test: CYP3A4 inhibition assay (substrates BFC and BQ)
# Source text: as §4
# as §2, with “dilutions.” for “dilutions. The microtitre plates containing 0.1 mL/well of the latter mixture were pre-warmed to 37° C. in an incubator.”
# as §5
# Chain of CYP3A4 (P08684 whole entry): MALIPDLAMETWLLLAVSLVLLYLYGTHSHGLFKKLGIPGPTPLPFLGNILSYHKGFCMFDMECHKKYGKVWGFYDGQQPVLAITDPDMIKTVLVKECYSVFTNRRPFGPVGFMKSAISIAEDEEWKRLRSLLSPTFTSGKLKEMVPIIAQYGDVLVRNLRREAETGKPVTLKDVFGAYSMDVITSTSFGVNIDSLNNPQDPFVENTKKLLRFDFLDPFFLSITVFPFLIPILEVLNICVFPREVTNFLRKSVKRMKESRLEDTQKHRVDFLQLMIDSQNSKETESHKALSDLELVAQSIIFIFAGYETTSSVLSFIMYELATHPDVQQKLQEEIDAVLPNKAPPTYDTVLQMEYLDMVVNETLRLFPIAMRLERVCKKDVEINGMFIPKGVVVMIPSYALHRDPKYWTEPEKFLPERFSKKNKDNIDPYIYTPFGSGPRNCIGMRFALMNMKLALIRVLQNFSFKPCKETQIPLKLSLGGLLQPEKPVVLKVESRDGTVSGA
# Chain of CYP2D6 (P10635 whole entry): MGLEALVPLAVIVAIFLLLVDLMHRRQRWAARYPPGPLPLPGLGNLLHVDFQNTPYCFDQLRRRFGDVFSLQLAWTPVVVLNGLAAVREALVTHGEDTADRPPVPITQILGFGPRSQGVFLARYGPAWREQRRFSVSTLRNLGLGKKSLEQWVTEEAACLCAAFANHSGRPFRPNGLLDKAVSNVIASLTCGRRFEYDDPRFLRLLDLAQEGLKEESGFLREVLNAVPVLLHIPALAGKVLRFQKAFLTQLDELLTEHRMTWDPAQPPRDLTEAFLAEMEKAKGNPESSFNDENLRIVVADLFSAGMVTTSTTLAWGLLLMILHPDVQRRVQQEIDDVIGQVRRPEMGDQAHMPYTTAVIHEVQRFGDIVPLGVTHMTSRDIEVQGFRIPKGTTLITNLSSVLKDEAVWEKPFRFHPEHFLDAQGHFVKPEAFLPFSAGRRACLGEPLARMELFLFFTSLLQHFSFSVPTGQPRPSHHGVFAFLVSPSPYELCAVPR
# T4 sequence (P05181 whole entry): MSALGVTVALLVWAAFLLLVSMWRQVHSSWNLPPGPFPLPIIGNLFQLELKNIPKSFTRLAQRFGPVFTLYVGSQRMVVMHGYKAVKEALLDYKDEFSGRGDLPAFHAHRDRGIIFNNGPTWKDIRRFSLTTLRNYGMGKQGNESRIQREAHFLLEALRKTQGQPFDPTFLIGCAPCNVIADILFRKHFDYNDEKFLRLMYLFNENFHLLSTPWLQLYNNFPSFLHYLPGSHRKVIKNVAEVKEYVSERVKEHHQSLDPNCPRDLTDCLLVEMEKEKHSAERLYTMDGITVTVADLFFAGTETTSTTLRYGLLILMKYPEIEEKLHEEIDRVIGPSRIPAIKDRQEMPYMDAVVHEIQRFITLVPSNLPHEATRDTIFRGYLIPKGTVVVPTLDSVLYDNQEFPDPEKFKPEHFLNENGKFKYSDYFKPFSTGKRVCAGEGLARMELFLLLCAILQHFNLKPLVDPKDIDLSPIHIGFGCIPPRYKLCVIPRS
structure (smiles),measurement,setting,value
"Cc1ncc(COP(=O)(O)O)c(C=O)c1O [P5P, pyridoxal-5-phosphate]",Pyridoxal 5′-phosphate IC50,CYP2A6,did not inhibit
same,Pyridoxal 5′-phosphate IC50,CYP2B6,did not inhibit
same,Pyridoxal 5′-phosphate IC50,CYP2C8,did not inhibit
same,Pyridoxal 5′-phosphate IC50,CYP2D6,did not inhibit
same,Pyridoxal 5′-phosphate IC50,CYP2E1,did not inhibit
same,IC50,"CYP3A4; read-out: Pyridoxal 5′-phosphate IC50, CYP3A4, substrate BQ, 0.0169 to […] tested",> 37 µM
same,IC50,"CYP3A4; read-out: Pyridoxal 5′-phosphate IC50 for CYP3A4, CYP3A4, substrate not given",≥ 37 µM
